# Source: ChEMBL document CHEMBL3045179, “Mode of Action and QSAR Studies of Nitrification Inhibitors” (J Pestic Sci, 1997)
# How the values were obtained:
# [1] = tested on: Nitrosomonas europaea; test: Inhibition of Nitrosomonas europaea ATCC 25978-mediated nitrification activity assessed as nitrite nitrogen formation after 7 to 10 days by Griess-Ilosvay method; assay type: functional, organism-based; details: read-out: pI50 (converted)
# [2] = tested on: Nitrosomonas sp. TK794; test: Inhibition of Nitrosomonas sp. TK794-mediated nitrification activity assessed as nitrite nitrogen formation at 4 mg/kg after 7 to 10 days by Griess-Ilosvay method relative to control; assay type: functional
# [3] = tested on: Nitrosomonas europaea; test: Inhibition of Nitrosomonas europaea ATCC 25978-mediated nitrification activity assessed as nitrite nitrogen formation at 2 mg/kg after 7 to 10 days by Griess-Ilosvay method relative to control; assay type: functional
# [4] = Octanol-water partition coefficient, log P of the compound; assay type: physicochemical
# [5] = tested on: Nitrosomonas europaea; test: Inhibition of Nitrosomonas europaea ATCC 25978-mediated nitrification activity assessed as nitrite nitrogen formation at 400 mg/kg after 7 to 10 days by Griess-Ilosvay method relative to control; assay type: functional
# [6] = tested on: Nitrosomonas sp. TK794; test: Inhibition of Nitrosomonas sp. TK794-mediated nitrification activity assessed as nitrite nitrogen formation at 500 mg/kg after 7 to 10 days by Griess-Ilosvay method relative to control; assay type: functional
# [7] = tested on: Nitrosomonas europaea; test: Inhibition of Nitrosomonas europaea ATCC 25978-mediated nitrification activity assessed as nitrite nitrogen formation at 0.1 mg/kg after 7 to 10 days by Griess-Ilosvay method relative to control; assay type: functional; details: values are per cent of control
# [8] = tested on: Nitrosomonas sp. TK794; test: Inhibition of Nitrosomonas sp. TK794-mediated nitrification activity assessed as nitrite nitrogen formation at 0.5 mg/kg after 7 to 10 days by Griess-Ilosvay method relative to control; assay type: functional
# [9] = tested on: Nitrosomonas europaea; test: Inhibition of Nitrosomonas europaea ATCC 25978-mediated nitrification activity assessed as nitrite nitrogen formation at 200 mg/kg after 7 to 10 days by Griess-Ilosvay method relative to control; assay type: functional
# [10] = tested on: Nitrosomonas europaea; test: Inhibition of Nitrosomonas europaea ATCC 25978-mediated nitrification activity assessed as nitrite nitrogen formation at 1 mg/kg after 7 to 10 days by Griess-Ilosvay method relative to control; assay type: functional; details: values are per cent of control
# [11] = tested on: Nitrosomonas sp. TK794; test: Inhibition of Nitrosomonas sp. TK794-mediated nitrification activity assessed as nitrite nitrogen formation at 1 mg/kg after 7 to 10 days by Griess-Ilosvay method relative to control; assay type: functional
# [12] = tested on: Nitrosomonas sp. TK794; test: Inhibition of Nitrosomonas sp. TK794-mediated nitrification activity assessed as nitrite nitrogen formation at 25 mg/kg after 7 to 10 days by Griess-Ilosvay method relative to control; assay type: functional
# [13] = tested on: Nitrosomonas europaea; test: Inhibition of Nitrosomonas europaea ATCC 25978-mediated nitrification activity assessed as nitrite nitrogen formation at 0.5 mg/kg after 7 to 10 days by Griess-Ilosvay method relative to control; assay type: functional; details: values are per cent of control
# [14] = tested on: Nitrosomonas sp. TK794; test: Inhibition of Nitrosomonas sp. TK794-mediated nitrification activity assessed as nitrite nitrogen formation at 5 mg/kg after 7 to 10 days by Griess-Ilosvay method relative to control; assay type: functional
# [15] = tested on: Nitrosomonas sp. TK794; test: Inhibition of Nitrosomonas sp. TK794-mediated nitrification activity assessed as nitrite nitrogen formation at 200 mg/kg after 7 to 10 days by Griess-Ilosvay method relative to control; assay type: functional
# [16] = tested on: Nitrosomonas europaea; test: Inhibition of Nitrosomonas europaea ATCC 25978-mediated nitrification activity assessed as nitrite nitrogen formation at 10 mg/kg after 7 to 10 days by Griess-Ilosvay method relative to control; assay type: functional
compound,measurement,setting,value
Nc1nc(N)nc(C(Cl)(Cl)Cl)n1,IC50,[1],7080 nM
same,inhibition in vivo at 4 mg/kg,[2],40%
same,inhibition in vivo at 2 mg/kg,[3],63.2%
same,logP,[4]; read-out: logP,1.21
CCCCCCCCCCCCCCCCNc1nc(C)nc(C(Cl)(Cl)Cl)n1,logP,[4],11.4
same,inhibition in vivo at 400 mg/kg,[5],45.2%
same,inhibition in vivo at 500 mg/kg,[6],81%
CNc1nc(-c2ccccc2)nc(C(Cl)(Cl)Cl)n1,IC50,[1],372 nM
same,residual activity at 0.1 mg/kg,[7],53.2%
same,logP,[4]; read-out: logP,4.7
same,inhibition in vivo at 0.5 mg/kg,[8],57.1%
COc1nc(N)nc(C(Cl)(Cl)Cl)n1,IC50,[1],490 nM
same,residual activity at 0.1 mg/kg,[7],36.1%
same,logP,[4]; read-out: logP,2.36
same,inhibition in vivo at 0.5 mg/kg,[8],29.5%
CCCCCCCCCCCCCCCCNc1nc(C(Cl)(Cl)Cl)nc(C(Cl)(Cl)Cl)n1,inhibition in vivo at 200 mg/kg,[9],52.8%
same,logP,[4],11.05
same,inhibition in vivo at 500 mg/kg,[6],52.9%
CCCCN(CCCC)c1nc(C)nc(C(Cl)(Cl)Cl)n1,IC50,[1],2090 nM
same,residual activity at 1 mg/kg,[10],56.2%
same,logP,[4]; read-out: logP,7.23
same,inhibition in vivo at 1 mg/kg,[11],56.8%
ClC(Cl)(Cl)c1nc(C(Cl)(Cl)Cl)nc(C(Cl)(Cl)Cl)n1,logP,[4]; read-out: logP,3.71
same,inhibition in vivo at 25 mg/kg,[12],50%
Cc1nc(C(Cl)(Cl)Cl)nc(C(Cl)(Cl)Cl)n1,IC50,[1],708 nM
same,residual activity at 0.5 mg/kg,[13],47.2%
same,logP,[4]; read-out: logP,4.07
same,inhibition in vivo at 0.5 mg/kg,[8],65%
CCCCNc1nc(C(Cl)(Cl)Cl)nc(C(Cl)(Cl)Cl)n1,IC50,[1],977 nM
same,residual activity at 0.1 mg/kg,[7],72.4%
same,logP,[4]; read-out: logP,4.72
CCNc1nc(-c2ccccc2)nc(C(Cl)(Cl)Cl)n1,IC50,[1],380 nM
same,residual activity at 0.1 mg/kg,[7],45.3%
same,logP,[4]; read-out: logP,5.23
same,inhibition in vivo at 0.5 mg/kg,[8],47.8%
CCCCCCCCCNc1nc(C)nc(C(Cl)(Cl)Cl)n1,inhibition in vivo at 5 mg/kg,[14],55%
same,IC50,[1],3020 nM
same,residual activity at 1 mg/kg,[10],59%
same,logP,[4]; read-out: logP,7.72
CNc1nc(C(Cl)(Cl)Cl)nc(C(Cl)(Cl)Cl)n1,IC50,[1],589 nM
same,residual activity at 0.1 mg/kg,[7],69.6%
same,logP,[4]; read-out: logP,3.14
CCCCCCCNc1nc(C)nc(C(Cl)(Cl)Cl)n1,IC50,[1],380 nM
same,residual activity at 0.1 mg/kg,[7],44.9%
same,logP,[4]; read-out: logP,6.66
ClC(Cl)(Cl)c1nc(-c2ccccc2)nc(C(Cl)(Cl)Cl)n1,logP,[4]; read-out: logP,5.26
same,inhibition in vivo at 200 mg/kg,[15],65.8%
CSc1nc(N)nc(C(Cl)(Cl)Cl)n1,inhibition in vivo at 5 mg/kg,[14],27%
same,IC50,[1],1260 nM
same,residual activity at 0.5 mg/kg,[13],65.5%
same,logP,[4]; read-out: logP,2.96
Clc1cccc(C(Cl)(Cl)Cl)n1 [NITRAPYRIN],inhibition in vivo at 5 mg/kg,[14],22.9%
same,IC50,[1],1910 nM
same,residual activity at 1 mg/kg,[10],30.1%
CCCNc1nc(C)nc(C(Cl)(Cl)Cl)n1,IC50,[1],2000 nM
same,residual activity at 1 mg/kg,[10],42.9%
same,logP,[4]; read-out: logP,4.56
CN(C)c1nc(C(Cl)(Cl)Cl)nc(C(Cl)(Cl)Cl)n1,logP,[4]; read-out: logP,3.7
same,inhibition in vivo at 0.5 mg/kg,[8],60.5%
Fc1ccc(Oc2nc(C(Cl)(Cl)Cl)nc(C(Cl)(Cl)Cl)n2)c(Cl)c1,IC50,[1],1100 nM
same,residual activity at 0.5 mg/kg,[13],52.2%
same,logP,[4]; read-out: logP,5.74
same,inhibition in vivo at 1 mg/kg,[11],57.8%
CCCCCCNc1nc(C)nc(C(Cl)(Cl)Cl)n1,IC50,[1],417 nM
same,residual activity at 0.1 mg/kg,[7],54.5%
same,logP,[4]; read-out: logP,6.13
COc1nc(C)nc(C(Cl)(Cl)Cl)n1,logP,[4]; read-out: logP,3.98
same,inhibition in vivo at 0.5 mg/kg,[8],32%
ClC(Cl)(Cl)c1nc(Nc2ccccc2)nc(C(Cl)(Cl)Cl)n1,logP,[4]; read-out: logP,4.33
same,inhibition in vivo at 0.5 mg/kg,[8],55%
CCCOc1nc(SC)nc(C(Cl)(Cl)Cl)n1,IC50,[1],257 nM
same,residual activity at 0.1 mg/kg,[7],47.6%
same,logP,[4]; read-out: logP,5.17
same,inhibition in vivo at 1 mg/kg,[11],60%
CCCCCCCCCCNc1nc(C(Cl)(Cl)Cl)nc(C(Cl)(Cl)Cl)n1,IC50,[1],10500 nM
same,inhibition in vivo at 10 mg/kg,[16],36.8%
same,logP,[4]; read-out: logP,7.9
Cc1nc(N(C)C)nc(C(Cl)(Cl)Cl)n1,logP,[4]; read-out: logP,4.07
same,inhibition in vivo at 1 mg/kg,[11],58.7%
CN(C)c1nc(-c2ccccc2)nc(C(Cl)(Cl)Cl)n1,inhibition in vivo at 5 mg/kg,[14],43%
same,IC50,[1],1700 nM
same,residual activity at 1 mg/kg,[10],40.1%
same,logP,[4]; read-out: logP,5.4
